{
  "source": "paper PMC10514136",
  "about": "“Peptide-conjugated antimiRs improve myotonic dystrophy type 1 phenotypes by promoting endogenous MBNL1 expression” (Molecular Therapy. Nucleic Acids, 2023)",
  "key": {"Mbnl1 mRNA": {"test_system": "Mbnl1 mRNA", "assay": "Mbnl1 transcript levels in muscle by qRT-PCR", "format": "in vivo, mouse", "conditions": "HSALR mice, 9.2 mg/kg (mean) i.v. every 2 weeks x3, day 45; quadriceps, vs PBS-treated HSALR", "protocol": "Total RNA from murine gastrocnemius and quadriceps muscle was isolated using the miRNeasy Mini Kit (QIAGEN, Hilden, Germany) according to the manufacturer's instructions. One microgram of RNA was digested with DNase I (Invitrogen, Carlsbad, CA) and reverse transcribed with SuperScript II (Invitrogen) using random hexanucleotides. For subsequent PCR reactions, 20 ng of cDNA was used with GoTaq polymerase (Promega). Specific primers were used to analyze the alternative splicing of Nfix, Atp2a1, and Clcn1 in mouse samples (both muscles). Gapdh levels established the endogenous reference levels using 0.2 ng of cDNA. […] PSR index was defined as value%SI minus X %DSI , divided by […] (SI, splicing inclusion of each sample; DSI, disease splicing inclusion; HSI, healthy splicing inclusion). Overall, PSR indicates the amount in both muscles analyzed. […] Commercial TaqMan probes (QIAGEN) were used for mouse (Mbnl1 and Mbnl2; FAM-labeled probes) and reference (GAPDH; MAX-labeled probe) genes. Results were normalized to Gapdh endogenous gene expression. Expression levels were measured using a QuantStudio 5 Real-Time PCR System (Applied Biosystems, Foster City, CA). […] Mouse handling and experimental procedures followed the European law regarding laboratory animal care and experimentation (2003/65/C.E.) and were approved by Conselleria de Agricultura, […] […]"}, "DM1 cells": {"test_system": "DM1 cells", "assay": "Cell growth inhibition of DM1 cells, gymnosis vs transfection at EC50", "format": "cell-based, human", "conditions": "at the EC50 concentration", "protocol": "Immortalized MyoD-inducible (doxycycline) DM1 and control fibroblasts were kindly provided by Dr Furling (Institute of Myology, Paris, France).[38] For the activity assay, cells were seeded in 6-well plates at a density of 8 × 10^4 cells/well and grown in DMEM with 4.5 g/L glucose, 1% P/S, and 10% FBS (Sigma, St. Louis, MO). To transdifferentiate fibroblasts into myoblasts by inducing MyoD expression, the cells were plated in muscle differentiation medium containing DMEM with 4.5 g L^−1 glucose, 1% P/S, 2% horse serum, 1% apo-transferrin (10 mg mL^−1), 0.1% insulin (10 mg mL^−1), and 0.02% doxycycline (10 mg mL^−1). In all cases, the cells were grown at 37°C in a humidified atmosphere containing 5% CO2. Transdifferentiation was induced at day 0, and transfection was performed by lipofection with X-tremeGENE HP (Roche, Basel, Switzerland) 24 h later, with antimiRs and test compounds in the cell medium at different concentrations (from 0.4 nM to 5 μM). […]\nCells seeded at 10^5 cells/mL in 96-well plates were transfected 24 h later with antimiRs as described previously.[20] After 96 h, cell proliferation was measured using the CellTiter 96 AQueous Non-Radioactive Cell Proliferation Assay (Promega, Madison, WI). Absorbance levels were determined using an Infinite M200 PRO plate reader (Tecan, Männedorf, Switzerland) and the TC50 was calculated using non-linear least-squares regression."}, "miR-218": {"test_system": "miR-218", "assay": "Functional miR-218 levels in gastrocnemius and quadriceps by qRT-PCR", "format": "in vivo, mouse", "conditions": "HSALR mice, 9.2 mg/kg (mean) i.v. every 2 weeks x3, day 45, vs PBS-treated HSALR", "protocol": "miRNA expression in muscle tissues was quantified using specific miRCURY-locked nucleic acid microRNA PCR primers (QIAGEN) according to the manufacturer's instructions. […] Expression levels were measured using a QuantStudio 5 Real-Time PCR System (Applied Biosystems, Foster City, CA). […] Mouse handling and experimental procedures followed the European law regarding laboratory animal care and experimentation (2003/65/C.E.) and were approved by Conselleria de Agricultura, […] (reference no. A1539961490857). We used homozygous transgenic HSA^LR (line 20 b) mice,[90] which were kindly provided by Dr Thornton (Rochester, NY) and were housed and bred in our animal facility. […] The mice were randomly allocated to the different treatments as follows: in each cage, each mouse was ear-marked as it was taken out, and each mouse was then assigned to a different treatment. Animals were injected biweekly intravenously with 150 μL of 1× PBS vehicle (controls; […] Mice were sacrificed 45 days after the first injection and the tissues of interest were frozen in liquid nitrogen for the molecular and histological assays. All the mice used in this study ranged from 5 to 5.5 months of age and all were males."}, "HSALR mice": {"test_system": "HSALR mice", "assay": "Histology, percentage of muscle fibers with central nuclei", "format": "in vivo, mouse", "conditions": "9.2 mg/kg (mean) i.v. every 2 weeks x3, day 45", "description": "Mouse handling and experimental procedures followed the European law regarding laboratory animal care and experimentation (2003/65/C.E.) and were approved by Conselleria de Agricultura, Generalitat Valenciana (reference no. A1539961490857). We used homozygous transgenic HSA^LR (line 20 b) mice,[90] which were kindly provided by Dr Thornton (Rochester, NY) and were housed and bred in our animal facility. Experimental groups were FVB as healthy control and HSA^LR treated with a scrambled ON (SC) and PBS as negative controls, and HSA^LR mice treated with all six experimental CPP-PMOs. The mice were randomly allocated to the different treatments as follows: in each cage, each mouse was ear-marked as it was taken out, and each mouse was then assigned to a different treatment. […]\nFrozen 15-μm sections of mouse gastrocnemius and quadriceps muscles were stained with hematoxylin and eosin and mounted with DPX Mountant for histology (Sigma) according to standard procedures. […] The percentage of fibers containing central nuclei was quantified in a total of 200 fibers in each mouse."}},
  "data": [
    {"substance": "6aKC-23b (antisense GGUAAUCCCUGGCAAUGUGAU; all phosphorodiamidate morpholino (PMO), T or U not given here; Pip6aKC peptide conjugated)", "values": [
      {"measurement": "Mbnl1 mRNA levels", "setting": "Mbnl1 mRNA", "value": "significant increases in quadriceps"}
    ]},
    {"substance": "9b2KC-23b (antisense GGUAAUCCCUGGCAAUGUGAU; all phosphorodiamidate morpholino (PMO), T or U not given here; Pip9b2KC peptide conjugated)", "values": [
      {"measurement": "toxicity (cell growth inhibition), gymnosis compared with transfection", "setting": "DM1 cells", "value": "toxicity was significantly reduced"}
    ]},
    {"substance": "TCTTACCTCAGTTACAATTTA-Pip9b2 [Scramble, reference compound]", "values": [
      {"measurement": "levels of functional miR-218", "setting": "miR-218", "value": "did not reduce functional levels"},
      {"measurement": "muscle fibers with central nuclei vs PBS-injected mice", "setting": "HSALR mice", "value": "did not differ significantly from PBS-injected ones"}
    ]}
  ]
}
